Data set [1] can be described thus: In vitro keratolysis study: release of protein from ground callus (BioRad protein assay). Particulars: for Protein release compared with glycolic acid, other bases / water control: 10 minutes (Example 7); for Protein release compared with glycolic acid / water control: all time points (Example 6). The procedure:
An in vitro keratolysis study was performed to compare the capability of glycolic acid and a base for removing protein from stratum corneum. Adult foot callus was collected, grounded and the portion between 50-80 mesh was used. Glycolic acid and sodium hydroxide solutions (concentration=0.05 M) were prepared in distilled water. Ten mg of ground callus powder was place in a test tube. Four ml of a test chemical was added to the callus and the test tube was placed in a shaker and incubated in a water bath at 37° C. for a predetermined incubation time. The incubation time periods were 10 min., 40 min, 2 hours, 4 hours, 6 hours and 24 hours. Six samples of each base were tested a total of six times each at each of the aforementioned incubation time periods.
At the end of each incubation period, the test tube was removed from the shaker and the test tube was centrifuged. The solution was removed and filtered, and the protein in the solution was then determined using a BioRad® protein assay kit.

For data set [2] the following is noted: cited from earlier work; for Alkalinity / base strength in words: aqueous solution.
For data set [3] the following is noted: cited from earlier work.
Data set [4] in a line: In vitro keratolysis study: release of protein from ground callus (BioRad protein assay). Particulars: incubation 40 minutes (Table 3).
Setting [5] is: 0.05 M solutions, incubation time 10 minutes (Table 2, Example 7).
Where [6] appears, read: 0.05 M solution, 37° C., incubation 10 min (Table 1).
Setting [7] is: 0.05 M solution, 37° C., incubation 40 min (Table 1).
Where [8] appears, read: 0.05 M solution, 37° C., incubation 2 hours (Table 1).
Setting [9] is: 0.05 M solution, 37° C., incubation 4 hours (Table 1).
Where [10] appears, read: 0.05 M solution, 37° C., incubation 6 hours (Table 1).
Setting [11] is: 0.05 M solution, 37° C., incubation 24 hours (Table 1).

Where two headings read alike, the source gives them in different places.

Consider `CCC(N)CO` (centres unmarked) [2-amino-1-butanol], for which, in data set [1] (setting [5]), the “Amount of Protein Released” value was found to be 0.174 mg/4 ml.

For `CC(N)(CO)CO` [2-amino-2-methyl-1,3-propanediol], the “pH of Aqueous Solution (concentration)” value in data set [2] (0.1 m) is 10.8 (0.1 m).

`CC(C)(N)CO` [2-amino-2-methyl-1-propanol]: in data set [2] (0.1 m), the “pH of Aqueous Solution (concentration)” value is 11.3 (0.1 m).

Regarding `N` [Ammonium hydroxide], the “pH of Aqueous Solution (concentration)” value in data set [2] (0.001 N) is 10.27; in data set [2] (1 N), 11.27.

As for `N.N.O=P(O)(O)O` [Ammonium phosphate, dibasic], the “pH of Aqueous Solution (concentration)” value in data set [2] (concentration not given) is “˜8”.

Regarding `N=C(N)NCCC[C@H](N)C(=O)O` [Arginine], in data set [1] (setting [5]), the “Amount of Protein Released” value was 0.153 mg/4 ml.

Take `C[N+](C)(C)CC(=O)O` [Betaine]: in data set [1] (setting [5]), the “Amount of Protein Released” value came to 0.144 mg/4 ml.

`[O]=[Ca]` [Calcium oxide]: the “Solubility in water” value in data set [3] is on record as “Soluble in water, Form Ca(OH)2”.

In the case of `NC1CCCCC1` [Cyclohexylamine], in data set [2], the “Alkalinity / base strength in words” value is “Strong base”.

Turning to `OCCNCCO` [Diethanolamine], the “Amount of Protein Released” value in data set [1] (setting [5]) is on record as 0.144 mg/4 ml. Also, the “pH of Aqueous Solution (concentration)” value in data set [2] (0.1 N) is listed as 11.0 (0.1 N).

On to `NCCN` [Ethylenediamine], for which the “Alkalinity / base strength in words” value in data set [2] is “Strong base”. Moreover, the “Amount of Protein Released” value in data set [4] (0.005% solution) was 0.059 mg/4 ml; in data set [4] (0.01% solution), 0.080 mg/4 ml.

With `O=C(O)CO` [Glycolic Acid, reference compound], the “Amount of Protein Released” value in data set [1] (setting [6]) was determined as 0.093 mg/4 ml; in data set [1] (setting [7]), 0.175 mg/4 ml; in data set [1] (setting [8]), 0.126 mg/4 ml; in data set [1] (setting [9]) it was 0.219 mg/4 ml; in data set [1] (setting [10]) it was 0.089 mg/4 ml; in data set [1] (setting [11]), 0.173 mg/4 ml. In data set [1] (setting [5]), the “Amount of Protein Released” value turned out to be 0.187 mg/4 ml. Besides, the “Protein release compared with glycolic acid, other bases / water control” value in data set [1] (0.05 M) is given as “did not show significant differences in comparison with water”. Besides, the “Protein release compared with glycolic acid / water control” value in data set [1] (0.05 M) is “did not show statistical differences in comparison with water”.

For `N[C@@H](Cc1c[nH]c2ccccc12)C(=O)O` [L-tryptophan], the “Amount of Protein Released” value in data set [1] (setting [5]) was 0.170 mg/4 ml.

With `[O]=[Mg]` [Magnesium oxide], the “pH of Aqueous Solution (concentration)” value in data set [2] (saturated solution in water) was 10.3 (saturated aqueous solution).

On to `[Na+].[OH-]` [NaOH, Sodium hydroxide], for which the “Protein released at 6 hours and 24 hours compared with 10 minutes, 40 minutes, 2 hours and 4 hours” value in data set [1] (0.05 M) is listed as “significantly higher”. Also, the “Amount of Protein Released” value in data set [1] (setting [6]) stood at 0.419 mg/4 ml; in data set [1] (setting [7]), 0.739 mg/4 ml; in data set [1] (setting [8]), 0.899 mg/4 ml; in data set [1] (setting [9]) it was 1.003 mg/4 ml; in data set [1] (setting [10]) it was 4.853 mg/4 ml; in data set [1] (setting [11]) it was 5.148 mg/4 ml. Besides, the “Amount of Protein Released” value is 0.544 mg/4 ml in data set [1] (setting [5]), 0.059 mg/4 ml in data set [4] (0.005% solution) and 0.074 mg/4 ml in data set [4] (0.01% solution). Also, the “Protein release compared with glycolic acid, other bases / water control” value in data set [1] (0.05 M) is listed as “released more protein”. For the same compound, the “Protein release compared with glycolic acid / water control” value in data set [1] (0.05 M) is “released more protein”. The “pH of Aqueous Solution (concentration)” value in data set [2] (0.05%) is given as 12; in data set [2] (0.5%) it was 13; in data set [2] (5%) it was 14.

With `NCCc1ccccc1` [Phenethylamine], in data set [2], the “Alkalinity / base strength in words” value is on record as “Strong base”.

On to `C1CCNCC1` [Piperidine], for which the “Alkalinity / base strength in words” value in data set [2] was “Strong base”. For the same compound, the “Amount of Protein Released” value stood at 0.066 mg/4 ml in data set [4] (0.005% solution) and 0.071 mg/4 ml in data set [4] (0.01% solution).

With `CC(=O)[O-].[K+]` [Potassium acetate], the “Amount of Protein Released” value in data set [4] (0.005% solution) amounted to 0.060 mg/4 ml; in data set [4] (0.01% solution), 0.064 mg/4 ml.

On to `O=C([O-])[O-].[K+].[K+]` [Potassium carbonate], for which the “Amount of Protein Released” value in data set [4] (0.005% solution) worked out at 0.068 mg/4 ml; in data set [4] (0.01% solution), 0.073 mg/4 ml.

On to `O=C([O-])CC(O)(CC(=O)[O-])C(=O)[O-].[K+].[K+].[K+]` [Potassium citrate], for which the “pH of Aqueous Solution (concentration)” value in data set [2] (concentration not given) is “˜8.5”.

For `O=P([O-])([O-])O.[K+].[K+]` [Potassium phosphate, dibasic], the “Alkalinity / base strength in words” value in data set [2] is “Aqueous solution is slightly alkaline”.

Consider `C1CCNC1` [Pyrrolidine], for which the “Alkalinity / base strength in words” value in data set [2] is “Strong base”. In addition, the “Amount of Protein Released” value in data set [4] (0.005% solution) is on record as 0.060 mg/4 ml; in data set [4] (0.01% solution), 0.066 mg/4 ml.

Take `CC(=O)[O-].[Na+]` [Sodium acetate, anhydrous]: in data set [2] (0.1 N), the “pH of Aqueous Solution (concentration)” value is given as “˜8.9 (0.1 N)”.

Turning to `O=C([O-])[O-].[Na+].[Na+]` [Sodium carbonate anhydrous], in data set [2] (concentration not given), the “pH of Aqueous Solution (concentration)” value is listed as “˜11.6”.

For `O=B[O-].[Na+]` [Sodium metaborate], in data set [2], the “Alkalinity / base strength in words” value is “Strongly alkaline”.

Take `O=P([O-])([O-])O.[Na+].[Na+]` [Sodium phosphate, dibasic, anhydrous]: the “pH of Aqueous Solution (concentration)” value in data set [2] (1% (1.0%)) is 9.1 (1%).

On to `O.O.O=P([O-])([O-])O.[Na+].[Na+]` [Sodium phosphate, dibasic, dihydrate], for which the “pH of Aqueous Solution (concentration)” value in data set [2] (concentration not given) is reported as “˜9.5”.

Turning to `O.O.O.O.O.O.O.O.O.O.O.O.O=P([O-])([O-])O.[Na+].[Na+]` [Sodium phosphate, dibasic, dodecahydrate], in data set [2] (concentration not given), the “pH of Aqueous Solution (concentration)” value is recorded as “˜9.5”.

Take `O.O.O.O.O.O.O.O=P([O-])([O-])O.[Na+].[Na+]` [Sodium phosphate, dibasic, heptahydrate]: the “pH of Aqueous Solution (concentration)” value in data set [2] (concentration not given) is “˜9.5”.

As for `O=P([O-])([O-])O.[Na+].[Na+]` [Sodium phosphate, dibasic], the “pH of Aqueous Solution (concentration)” value in data set [2] (concentration not given) is “˜9.5”.

Regarding `O.O.O.O.O.O.O.O.O.O.O.O.O=P([O-])([O-])[O-].[Na+].[Na+].[Na+]` [Sodium phosphate, tribasic dodecahydrate], the entries for the “pH of Aqueous Solution (concentration)” value in data set [2] (0.1%), in data set [2] (0.5%) and in data set [2] (1% (1.0%)) were 11.5, 11.7 and 11.9, respectively.

As for `O=P([O-])([O-])[O-].[Na+].[Na+].[Na+]` [Sodium phosphate, tribasic], the entries for the “Amount of Protein Released” value in data set [4] (0.005% solution) and in data set [4] (0.01% solution) were 0.048 mg/4 ml and 0.050 mg/4 ml, respectively.

Consider `CN(C)C` [Trimethylamine], for which, in data set [2], the “Alkalinity / base strength in words” value was “Strong base”.
